# Data: ChEMBL document CHEMBL3124895, “Fragment-based discovery of potent inhibitors of the anti-apoptotic MCL-1 protein” (Bioorg Med Chem Lett, 2014)
# pIC50: −log10 of the molar value.
# Target: Induced myeloid leukemia cell differentiation protein Mcl-1 (Homo sapiens, UniProt Q07820)
# Test: Inhibition of human recombinant MCL-1 (174 to 236) expressed in Escherichia coli BL21(DE3) using 6FAM-GELEVEFATQLRRFGDKLN as substrate after 15 mins by fluorescence polarization Assay
# Chain of Induced myeloid leukemia cell differentiation protein Mcl-1 (Q07820 whole entry): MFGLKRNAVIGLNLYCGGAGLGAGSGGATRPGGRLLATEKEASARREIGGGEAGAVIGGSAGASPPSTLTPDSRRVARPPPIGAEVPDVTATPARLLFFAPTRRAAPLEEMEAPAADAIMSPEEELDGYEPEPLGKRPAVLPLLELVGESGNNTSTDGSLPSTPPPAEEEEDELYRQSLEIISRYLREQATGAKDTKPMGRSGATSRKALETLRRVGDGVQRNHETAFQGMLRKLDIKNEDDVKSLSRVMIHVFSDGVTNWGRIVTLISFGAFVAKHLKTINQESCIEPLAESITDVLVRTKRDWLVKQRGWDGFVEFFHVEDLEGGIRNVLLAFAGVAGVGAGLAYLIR
row,pIC50,SMILES
1,4.47,O=C(O)c1cc(-c2ccccc2)ccc1O
2,3.89,Oc1nc2c(ccc3ccccc32)o1
3,7.52,Cc1ccc(-c2ccc(C(=O)O)c(NS(=O)(=O)c3ccc(OCCn4cccn4)cc3)c2)c2ccccc12
4,6.11,O=C(O)c1cc(-c2ccccc2OCc2ccccc2Cl)ccc1O
5,5.14,O=C(O)c1cc(-c2ccccc2OCc2ccccc2)ccc1O
6,5.21,Cc1ccc(-c2ccc(O)c(C(=O)O)c2)cc1C
7,3.72,Nc1cccc(-c2ccc(O)c(C(=O)O)c2)c1
8,5.96,CCCCOc1ccc(F)c(-c2ccc(O)c(C(=O)O)c2)c1
9,4.15,O=C1CC(c2cccc(C(F)(F)F)c2)=NN1
10,6.70,Cc1ccc(-c2ccc(C(=O)O)c(NS(=O)(=O)c3cccc(N4CCOCC4)c3)c2)c2ccccc12
11,5.47,C=Cc1ccc(C(=O)OCC)c(NS(=O)(=O)c2ccccc2)c1
12,4.66,Cc1ccccc1-c1ccc(O)c(C(=O)O)c1
13,7.10,Cc1ccc(-c2ccc(C(=O)O)c(NS(=O)(=O)c3ccc(C(=O)N(C)C)cc3)c2)c2ccccc12
14,6.30,Cc1ccc(-c2ccc(C(=O)O)c(NS(=O)(=O)c3ccc(Oc4ccccc4)cc3)c2)c2ccccc12

# The remaining lines, values behind:
row,SMILES,pIC50
1,Cc1ccc(-c2ccc(C(=O)O)c(NS(=O)(=O)c3ccccc3)c2)c2ccccc12,6.40
2,Cc1ccc(-c2ccc(C(=O)O)c(NS(=O)(=O)c3ccccc3)c2)cc1,5.31
3,O=C(O)c1ccc(-c2cccc3ncccc23)cc1NS(=O)(=O)c1ccccc1,4.43
4,O=C(O)c1cc(-c2cccc3ccccc23)ccc1O,4.51
5,O=C(O)c1ccc(-c2cccc3ccccc23)cc1NS(=O)(=O)c1ccccc1,6.00
6,CCC(C)c1ccc(S(=O)(=O)Nc2cc(-c3ccc(C)c4ccccc34)ccc2C(=O)O)cc1 (stereo not given),5.92
7,CCCc1ccc(-c2ccc(O)c(C(=O)O)c2)cc1,5.48
8,CCCCCc1ccc(S(=O)(=O)Nc2cc(-c3ccc(C)c4ccccc34)ccc2C(=O)O)cc1,6.52
9,Cc1ccc(-c2ccc(C(=O)O)c(NS(=O)(=O)c3ccc(NC(=O)NCC(C)C)cc3)c2)c2ccccc12,6.82
10,CC(C)(C)OCc1ccccc1-c1ccc(O)c(C(=O)O)c1,< 4.60
11,Cc1cccc(-c2ccc(C(=O)O)c(NS(=O)(=O)c3ccccc3)c2)c1,5.74
12,Cc1ccc(-c2ccc(C(=O)O)c(NS(=O)(=O)c3ccc(OCCCN4CCOCC4)cc3)c2)c2ccccc12,7.22
13,O=C(O)c1cc(-c2ccccc2COc2cccc(C(F)(F)F)c2)ccc1O,6.17
14,O=C(O)c1cc(-c2ccccc2COc2cccc3ccccc23)ccc1O,6.24
15,O=C(O)c1cc(-c2ccc(OCc3ccccc3)cc2)ccc1O,5.66
16,Cc1ccc(S(=O)(=O)Nc2ccccc2-c2ccc(O)c(C(=O)O)c2)cc1,< 4.60
17,Cc1ccc(-c2ccc(C(=O)O)c(NS(=O)(=O)c3ccc(N4CCOCC4)cc3)c2)c2ccccc12,6.96
18,O=C(O)c1cc(-c2ccc3ncccc3c2)ccc1O,4.66
19,CS(=O)(=O)Nc1ccccc1-c1ccc(O)c(C(=O)O)c1,4.35
20,CN(C)c1cccc2ccc(O)cc12,3.55
21,Cc1ccc(-c2ccc(O)c(C(=O)O)c2)cc1,4.14
